Test results taken from patent publication US8105608B2, “Method of treatment using ligand-immunogen conjugates” (Purdue Research Foundation, priority 2000, dated 2012).

Test system: M109 cells
Experiment: Survival of mice with M109 cells implanted intraperitoneally close to the liver
Assay type: in vivo
Settings: Example 16; folate-FITC 1500 nmoles/kg, IFN-α 7.5×10^4 units/day days 7, 8, 9, 11, 14; FITC-KLH immunized; 5 mice per group; PBS 17 days
Description: Furthermore, in an effort to reduce the time required to obtain long-term survival data, the tumor cells were implanted intraperitoneally close to the liver. […] Aminofluorescein was injected along with the various cytokine combinations as a control because this compound is not linked to folate and will not retarget anti-fluorescein antibodies to tumor cells.
Each mouse was injected with 0.2 ml of a 1:10 dilution of the antibody stock solution on days 1, 4, 9, and 14 after tumor implantation to achieve NK cell depletion.
Additionally, the animals were immunized with FITC-labeled keyhole limpit hemocyanin (KLH) rather than FITC-labeled BSA.
Aminofluorescein was injected along with the IL-2, IFN-α cytokine combination as a control because this compound is not linked to folate and will not retarget anti-fluorescein antibodies to tumor cells.
Additionally, the animals were immunized with DNP-labeled keyhole limpit hemocyanin (KLH).
Additionally, the animals (5 mice per group) were immunized with FITC-labeled keyhole limpit hemocyanin (KLH) rather than FITC-labeled BSA.

IFN-α
median survival time: 17 days
